Measurements published in ChEMBL document CHEMBL2385026, “Identification of C-2 hydroxyethyl imidazopyrrolopyridines as potent JAK1 inhibitors with favorable physicochemical properties and high selectivity over JAK2” (J Med Chem, 2013).
Values after ≈ are worked out from the molar mass of the structure shown. Each block holds one compound with its values, some of them ahead of it. Active and inactive are the calls of the source. The rule behind the calls is not given here.

Columns and labels:
[1] = test system: Rattus norvegicus; assay: Antiarthritic activity in Lewis rat collagen-induced arthritis model assessed as decrease in mean ankle thicknesses at 500 mg/kg, po qd administered for 11 days; type: functional, organism-based; set-up: dose 500 mg/kg
[2] = molecular target: T1, Cytochrome P450 3A4 (Homo sapiens, UniProt P08684); assay: Reversible inhibition of CYP3A4 in human liver microsomes using testosterone as substrate by LC/MS/MS analysis; type: ADME, Microsome
[3] = AUC in Lewis rat collagen-induced arthritis model at 100 mg/kg, po administered on day 20; type: ADME, organism-based; set-up: dose 100 mg/kg, route oral; conditions: in vivo
[4] = AUC in Lewis rat collagen-induced arthritis model at 500 mg/kg, po administered on day 20; type: ADME, organism-based; set-up: dose 500 mg/kg, route oral; conditions: in vivo
[5] = AUC in Lewis rat collagen-induced arthritis model at 20 mg/kg, po administered on day 20; type: ADME, organism-based; set-up: dose 20 mg/kg, route oral; conditions: in vivo
[6] = AUC in Lewis rat collagen-induced arthritis model at 100 mg/kg, po administered on day 10; type: ADME, organism-based; set-up: dose 100 mg/kg, route oral; conditions: in vivo
[7] = AUC in Lewis rat collagen-induced arthritis model at 500 mg/kg, po administered on day 10; type: ADME, organism-based; set-up: dose 500 mg/kg, route oral; conditions: in vivo
[8] = AUC in Lewis rat collagen-induced arthritis model at 20 mg/kg, po administered on day 10; type: ADME, organism-based; set-up: dose 20 mg/kg, route oral; conditions: in vivo
[9] = test system: Rattus norvegicus; assay: Antiarthritic activity in Lewis rat collagen-induced arthritis model assessed as decrease in mean ankle thicknesses at 20 mg/kg, po qd administered for 11 days; type: functional, organism-based; set-up: dose 20 mg/kg
[10] = test system: Rattus norvegicus; assay: Antiarthritic activity in Lewis rat collagen-induced arthritis model assessed as decrease in mean ankle thicknesses at 100 mg/kg, po qd administered for 11 days; type: functional, organism-based; set-up: dose 100 mg/kg
[11] = molecular target: T2, Cytochrome P450 1A2 (Homo sapiens, UniProt P05177); assay: Reversible inhibition of CYP1A2 in human liver microsomes using phenacetin as substrate by LC/MS/MS analysis; type: ADME, Microsome
T2 sequence (P05177 whole entry): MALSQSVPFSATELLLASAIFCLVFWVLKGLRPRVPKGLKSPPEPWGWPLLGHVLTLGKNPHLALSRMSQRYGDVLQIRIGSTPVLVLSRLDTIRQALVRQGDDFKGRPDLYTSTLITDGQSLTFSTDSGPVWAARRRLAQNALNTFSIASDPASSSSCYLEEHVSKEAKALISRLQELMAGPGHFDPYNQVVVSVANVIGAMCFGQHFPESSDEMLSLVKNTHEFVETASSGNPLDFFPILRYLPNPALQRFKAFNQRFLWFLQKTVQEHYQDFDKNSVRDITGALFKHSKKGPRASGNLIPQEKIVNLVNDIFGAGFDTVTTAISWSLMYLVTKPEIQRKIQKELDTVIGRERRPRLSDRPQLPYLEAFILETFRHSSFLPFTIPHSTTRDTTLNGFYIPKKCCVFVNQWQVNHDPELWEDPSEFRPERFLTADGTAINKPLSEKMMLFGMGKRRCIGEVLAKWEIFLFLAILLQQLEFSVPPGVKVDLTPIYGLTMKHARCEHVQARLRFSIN

[12] = molecular target: T1, Cytochrome P450 3A4; assay: Reversible inhibition of CYP3A4 in human liver microsomes using midazolam as substrate by LC/MS/MS analysis; type: ADME, Microsome
[13] = molecular target: Tyrosine-protein kinase JAK3 (Homo sapiens, UniProt P52333)
[14] = test system: Platelet-derived growth factor receptor alpha (Homo sapiens), P16234 [V561D]; assay: Inhibition of PDGFRalpha V561D mutant (unknown origin) at 1 uM
[15] = Oral bioavailability in cynomolgus monkey at 2 mg/kg by LC/MS/MS analysis; type: ADME, organism-based, Macaca fascicularis; conditions: in vivo
[16] = Oral bioavailability in Beagle dog at 2 mg/kg by LC/MS/MS analysis; type: ADME, organism-based, Canis lupus familiaris; conditions: Beagle, in vivo
[17] = Oral bioavailability in Sprague-Dawley rat at 2 mg/kg by LC/MS/MS analysis; type: ADME, organism-based; conditions: Sprague-Dawley, in vivo
[18] = Cmax in cynomolgus monkey at 2 mg/kg, po by LC/MS/MS analysis; type: ADME, organism-based, Macaca fascicularis; set-up: dose 2 mg/kg, route oral; conditions: in vivo
[19] = Cmax in Beagle dog at 2 mg/kg, po by LC/MS/MS analysis; type: ADME, organism-based, Canis lupus familiaris; set-up: dose 2 mg/kg, route oral; conditions: in vivo
[20] = AUC in cynomolgus monkey at 2 mg/kg, po by LC/MS/MS analysis; type: ADME, organism-based, Macaca fascicularis; set-up: dose 2 mg/kg, route oral; conditions: plasma
[21] = AUC in Beagle dog at 2 mg/kg, po by LC/MS/MS analysis; type: ADME, organism-based, Canis lupus familiaris; set-up: dose 2 mg/kg, route oral; conditions: plasma
[22] = AUC in Sprague-Dawley rat at 2 mg/kg, po by LC/MS/MS analysis; type: ADME, organism-based; set-up: dose 2 mg/kg, route oral; conditions: plasma
[23] = Half life in cynomolgus monkey at 0.4 mg/kg, iv by LC/MS/MS analysis; type: ADME, organism-based, Macaca fascicularis; set-up: dose 0.4 mg/kg, route intravenous; conditions: in vivo
[24] = Half life in Beagle dog at 0.4 mg/kg, iv by LC/MS/MS analysis; type: ADME, organism-based, Canis lupus familiaris; set-up: dose 0.4 mg/kg, route intravenous; conditions: in vivo
[25] = Half life in Sprague-Dawley rat at 0.4 mg/kg, iv by LC/MS/MS analysis; type: ADME, organism-based; set-up: dose 0.4 mg/kg, route intravenous; conditions: in vivo
[26] = Clearance in Beagle dog at 0.4 mg/kg, iv by LC/MS/MS analysis; type: ADME, organism-based, Canis lupus familiaris; set-up: dose 0.4 mg/kg, route intravenous; conditions: in vivo
[27] = Clearance in cynomolgus monkey at 0.4 mg/kg, iv by LC/MS/MS analysis; type: ADME, organism-based, Macaca fascicularis; set-up: dose 0.4 mg/kg, route intravenous; conditions: in vivo
[28] = Clearance in Sprague-Dawley rat at 0.4 mg/kg, iv by LC/MS/MS analysis; type: ADME, organism-based; set-up: dose 0.4 mg/kg, route intravenous; conditions: in vivo
[29] = Metabolic stability in monkey hepatocytes assessed as hepatic clearance; type: ADME, cell-based, Macaca mulatta, Liver, Hepatocyte; conditions: rhesus monkey
[30] = Metabolic stability in dog hepatocytes assessed as hepatic clearance; type: ADME, cell-based, Canis lupus familiaris, Liver, Hepatocyte
[31] = Metabolic stability in rat hepatocytes assessed as hepatic clearance; type: ADME, cell-based, Liver, Hepatocyte
[32] = Plasma protein binding in cynomolgus monkey; type: ADME, cell-free, Macaca fascicularis; conditions: read-out: PPB (converted)
[33] = Plasma protein binding in dog; type: ADME, cell-free, Canis lupus familiaris; conditions: read-out: PPB (converted)
[34] = Apparent permeability across basolateral to apical side in dog MDCK cells; type: ADME, cell-based, Canis lupus familiaris
[35] = Plasma protein binding in rat; type: ADME, cell-free; conditions: read-out: PPB (converted)
[36] = Thermodynamic solubility in aqueous buffer at pH 7.4; type: physicochemical; conditions: read-out: Therm_solubility
[37] = Thermodynamic solubility in aqueous buffer at pH 2; type: physicochemical; conditions: read-out: Therm_solubility
[38] = Hepatic clearance in human liver microsomes by LC/MS/MS analysis; type: ADME, Microsome
[39] = Hepatic clearance in human hepatocytes after 1 to 4 hrs by LC/MS/MS analysis; type: ADME, cell-based, Liver, Hepatocyte
[40] = Apparent permeability across apical to basolateral side in dog MDCK cells; type: ADME, cell-based, Canis lupus familiaris
[41] = Cmax in Sprague-Dawley rat at 2 mg/kg, po by LC/MS/MS analysis; type: ADME, organism-based; set-up: dose 2 mg/kg, route oral; conditions: in vivo
[42] = molecular target: Cytochrome P450 2C19 (Homo sapiens, UniProt P33261)
[43] = molecular target: Cytochrome P450 2D6 (Homo sapiens, UniProt P10635)
[44] = molecular target: Cytochrome P450 2C9 (Homo sapiens, UniProt P11712)
[45] = molecular target: Voltage-gated inwardly rectifying potassium channel KCNH2 (Homo sapiens, UniProt Q12809)
[46] = molecular target: T3, Non-receptor tyrosine-protein kinase TYK2 (Homo sapiens, UniProt P29597)
[47] = molecular target: T3, Non-receptor tyrosine-protein kinase TYK2; remark: listed apart in the source
[48] = molecular target: T4, Tyrosine-protein kinase JAK1 (Homo sapiens, UniProt P23458)
[49] = molecular target: T4, Tyrosine-protein kinase JAK1; remark: listed apart in the source
[50] = molecular target: T4, Tyrosine-protein kinase JAK1; remark: listed apart in the source

T1 sequence (P08684 whole entry): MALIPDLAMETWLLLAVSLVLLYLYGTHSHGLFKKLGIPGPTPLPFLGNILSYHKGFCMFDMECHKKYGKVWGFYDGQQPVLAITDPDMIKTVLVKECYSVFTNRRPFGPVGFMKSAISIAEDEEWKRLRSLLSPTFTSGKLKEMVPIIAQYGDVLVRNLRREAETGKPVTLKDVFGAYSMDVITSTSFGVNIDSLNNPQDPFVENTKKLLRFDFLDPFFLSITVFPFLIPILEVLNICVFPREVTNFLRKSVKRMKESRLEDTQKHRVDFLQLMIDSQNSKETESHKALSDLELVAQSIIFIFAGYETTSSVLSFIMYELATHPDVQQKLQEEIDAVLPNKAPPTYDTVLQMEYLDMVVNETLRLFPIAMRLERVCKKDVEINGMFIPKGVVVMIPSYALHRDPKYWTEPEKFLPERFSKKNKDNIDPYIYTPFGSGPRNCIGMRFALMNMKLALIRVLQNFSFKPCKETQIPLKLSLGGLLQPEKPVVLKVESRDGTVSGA
T4 sequence (P23458 whole entry): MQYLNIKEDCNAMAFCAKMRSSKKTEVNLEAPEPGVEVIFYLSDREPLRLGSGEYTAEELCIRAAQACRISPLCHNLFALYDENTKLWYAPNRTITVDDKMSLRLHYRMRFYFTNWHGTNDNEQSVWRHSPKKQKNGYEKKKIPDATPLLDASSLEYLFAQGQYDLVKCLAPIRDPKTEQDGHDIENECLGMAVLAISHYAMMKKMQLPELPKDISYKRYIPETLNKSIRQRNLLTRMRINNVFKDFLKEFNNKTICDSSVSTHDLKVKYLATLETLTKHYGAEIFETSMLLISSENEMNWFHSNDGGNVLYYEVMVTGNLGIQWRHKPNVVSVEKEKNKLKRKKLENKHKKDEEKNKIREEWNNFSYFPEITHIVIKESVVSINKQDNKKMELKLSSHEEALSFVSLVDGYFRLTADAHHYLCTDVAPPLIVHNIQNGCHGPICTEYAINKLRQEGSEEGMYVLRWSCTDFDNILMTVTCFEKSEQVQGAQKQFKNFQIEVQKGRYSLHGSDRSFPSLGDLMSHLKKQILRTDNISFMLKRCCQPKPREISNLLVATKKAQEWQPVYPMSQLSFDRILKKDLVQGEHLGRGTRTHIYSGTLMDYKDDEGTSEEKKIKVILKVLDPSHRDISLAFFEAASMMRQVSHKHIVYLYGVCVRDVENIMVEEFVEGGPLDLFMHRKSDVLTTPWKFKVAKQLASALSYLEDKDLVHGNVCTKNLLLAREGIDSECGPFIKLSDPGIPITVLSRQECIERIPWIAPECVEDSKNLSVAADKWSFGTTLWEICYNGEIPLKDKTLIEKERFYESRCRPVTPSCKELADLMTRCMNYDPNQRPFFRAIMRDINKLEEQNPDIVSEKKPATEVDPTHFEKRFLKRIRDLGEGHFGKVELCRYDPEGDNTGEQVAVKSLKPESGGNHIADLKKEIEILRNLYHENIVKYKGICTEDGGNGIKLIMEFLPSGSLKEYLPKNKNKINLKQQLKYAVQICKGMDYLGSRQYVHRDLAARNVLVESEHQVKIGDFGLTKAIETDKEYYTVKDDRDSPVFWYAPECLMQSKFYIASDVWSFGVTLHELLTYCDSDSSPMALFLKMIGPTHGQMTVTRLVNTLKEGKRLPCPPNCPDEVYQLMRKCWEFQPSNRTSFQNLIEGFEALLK
Cytochrome P450 2D6, sequence (P10635 whole entry): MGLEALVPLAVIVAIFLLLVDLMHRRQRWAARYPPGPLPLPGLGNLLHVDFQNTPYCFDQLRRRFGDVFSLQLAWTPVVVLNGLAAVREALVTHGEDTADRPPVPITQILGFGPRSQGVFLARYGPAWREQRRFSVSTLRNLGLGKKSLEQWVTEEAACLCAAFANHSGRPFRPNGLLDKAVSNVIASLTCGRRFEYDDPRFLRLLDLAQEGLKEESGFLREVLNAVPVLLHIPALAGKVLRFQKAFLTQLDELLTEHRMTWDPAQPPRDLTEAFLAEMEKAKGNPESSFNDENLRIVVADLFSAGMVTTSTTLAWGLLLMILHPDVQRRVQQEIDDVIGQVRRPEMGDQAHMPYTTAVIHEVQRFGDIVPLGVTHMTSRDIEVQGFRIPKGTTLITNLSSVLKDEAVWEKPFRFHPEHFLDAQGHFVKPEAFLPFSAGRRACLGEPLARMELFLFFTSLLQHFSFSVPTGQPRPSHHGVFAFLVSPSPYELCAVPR
Cytochrome P450 2C19, sequence (P33261 whole entry): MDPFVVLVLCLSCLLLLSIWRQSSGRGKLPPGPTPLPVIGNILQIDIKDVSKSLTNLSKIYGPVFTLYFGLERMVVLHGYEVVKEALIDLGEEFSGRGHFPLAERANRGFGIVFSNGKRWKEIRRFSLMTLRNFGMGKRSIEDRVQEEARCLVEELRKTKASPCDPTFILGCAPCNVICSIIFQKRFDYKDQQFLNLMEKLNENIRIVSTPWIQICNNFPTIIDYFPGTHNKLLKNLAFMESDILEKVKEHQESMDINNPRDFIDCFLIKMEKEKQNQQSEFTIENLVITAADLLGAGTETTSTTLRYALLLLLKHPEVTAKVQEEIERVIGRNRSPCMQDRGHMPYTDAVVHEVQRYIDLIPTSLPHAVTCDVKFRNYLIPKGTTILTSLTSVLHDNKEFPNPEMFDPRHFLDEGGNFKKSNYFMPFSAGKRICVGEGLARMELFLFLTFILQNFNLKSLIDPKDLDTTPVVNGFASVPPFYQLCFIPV
Voltage-gated inwardly rectifying potassium channel KCNH2, sequence (Q12809 whole entry): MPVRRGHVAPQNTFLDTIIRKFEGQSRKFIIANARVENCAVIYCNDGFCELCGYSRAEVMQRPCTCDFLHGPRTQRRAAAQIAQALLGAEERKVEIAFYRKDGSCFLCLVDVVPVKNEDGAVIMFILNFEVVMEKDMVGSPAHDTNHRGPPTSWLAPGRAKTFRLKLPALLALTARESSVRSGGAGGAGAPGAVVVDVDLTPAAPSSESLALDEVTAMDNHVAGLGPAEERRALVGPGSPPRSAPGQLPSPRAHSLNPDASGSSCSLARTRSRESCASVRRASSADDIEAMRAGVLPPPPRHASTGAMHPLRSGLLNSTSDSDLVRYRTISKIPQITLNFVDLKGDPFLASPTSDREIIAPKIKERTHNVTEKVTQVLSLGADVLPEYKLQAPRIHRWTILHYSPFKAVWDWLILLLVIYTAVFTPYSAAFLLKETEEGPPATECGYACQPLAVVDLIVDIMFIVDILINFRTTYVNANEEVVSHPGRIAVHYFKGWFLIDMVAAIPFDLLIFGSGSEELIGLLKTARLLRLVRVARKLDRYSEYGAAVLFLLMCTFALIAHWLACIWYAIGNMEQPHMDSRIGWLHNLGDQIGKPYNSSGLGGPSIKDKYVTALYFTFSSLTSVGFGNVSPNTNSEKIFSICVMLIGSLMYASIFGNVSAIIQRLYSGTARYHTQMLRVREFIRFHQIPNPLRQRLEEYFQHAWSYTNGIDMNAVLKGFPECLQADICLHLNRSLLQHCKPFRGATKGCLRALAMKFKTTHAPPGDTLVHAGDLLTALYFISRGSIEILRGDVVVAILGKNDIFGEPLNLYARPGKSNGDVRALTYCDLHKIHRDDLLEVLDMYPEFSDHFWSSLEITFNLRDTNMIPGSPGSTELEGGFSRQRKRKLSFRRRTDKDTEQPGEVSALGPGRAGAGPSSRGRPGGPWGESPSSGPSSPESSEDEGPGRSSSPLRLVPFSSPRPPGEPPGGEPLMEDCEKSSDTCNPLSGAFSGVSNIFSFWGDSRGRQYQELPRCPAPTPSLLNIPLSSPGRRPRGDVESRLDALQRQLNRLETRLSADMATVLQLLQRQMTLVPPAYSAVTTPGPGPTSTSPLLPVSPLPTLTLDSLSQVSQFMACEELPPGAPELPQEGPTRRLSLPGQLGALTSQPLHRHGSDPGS
Tyrosine-protein kinase JAK3, sequence (P52333 whole entry): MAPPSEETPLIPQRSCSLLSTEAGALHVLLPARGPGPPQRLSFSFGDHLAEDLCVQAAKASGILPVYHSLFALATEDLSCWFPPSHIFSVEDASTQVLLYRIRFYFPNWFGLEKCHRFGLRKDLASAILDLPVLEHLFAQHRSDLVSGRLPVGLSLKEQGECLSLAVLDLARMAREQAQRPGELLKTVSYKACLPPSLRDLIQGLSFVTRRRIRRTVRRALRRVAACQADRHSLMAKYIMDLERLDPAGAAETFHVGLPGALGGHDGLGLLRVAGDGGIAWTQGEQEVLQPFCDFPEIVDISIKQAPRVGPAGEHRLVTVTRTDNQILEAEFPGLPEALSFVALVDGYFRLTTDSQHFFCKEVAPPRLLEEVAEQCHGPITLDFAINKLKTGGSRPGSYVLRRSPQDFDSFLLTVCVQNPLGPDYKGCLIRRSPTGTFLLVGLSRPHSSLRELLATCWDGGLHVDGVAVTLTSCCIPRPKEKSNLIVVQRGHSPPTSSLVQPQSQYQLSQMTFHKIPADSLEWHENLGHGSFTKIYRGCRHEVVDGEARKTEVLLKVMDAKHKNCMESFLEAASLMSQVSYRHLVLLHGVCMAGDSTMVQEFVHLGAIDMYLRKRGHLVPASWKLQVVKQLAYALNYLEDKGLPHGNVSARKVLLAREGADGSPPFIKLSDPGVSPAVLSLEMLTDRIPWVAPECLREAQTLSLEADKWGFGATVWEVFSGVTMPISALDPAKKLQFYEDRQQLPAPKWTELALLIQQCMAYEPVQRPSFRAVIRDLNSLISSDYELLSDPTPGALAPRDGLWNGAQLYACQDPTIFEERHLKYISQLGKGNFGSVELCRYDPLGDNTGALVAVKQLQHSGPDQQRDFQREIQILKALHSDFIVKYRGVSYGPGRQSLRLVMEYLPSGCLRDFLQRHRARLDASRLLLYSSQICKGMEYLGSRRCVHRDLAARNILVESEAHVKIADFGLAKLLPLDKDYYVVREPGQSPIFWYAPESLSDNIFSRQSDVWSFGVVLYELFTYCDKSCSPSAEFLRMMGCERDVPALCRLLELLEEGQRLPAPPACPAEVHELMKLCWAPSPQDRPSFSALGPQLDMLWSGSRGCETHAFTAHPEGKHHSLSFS

- IC50 [2]: > 10 µM
- AUC [3]: 50.1 µM·h
- AUC [4]: 269 µM·h
- AUC [5]: 10.6 µM·h
- AUC [6]: 59.6 µM·h
- AUC [7]: 467 µM·h
- AUC [8]: 15 µM·h
- IC50 [11]: > 10 µM
- IC50 [12]: 7.9 µM
- Ki [13]: 0.28 µM
- inhibition [14]: 55%
- bioavailability [15]: 65%
- bioavailability [16]: 119%
- bioavailability [17]: 52%
- Cmax [18]: 630 nM
- Cmax [19]: 2100 nM
- AUC [20]: 3.9 µM·h
- AUC [21]: 8.3 µM·h
- AUC [22]: 0.94 µM·h
- half-life [23]: 1.7 h
- half-life [24]: 2.2 h
- half-life [25]: 0.5 h
- clearance [26]: 16 mL/min/kg
- clearance [27]: 18 mL/min/kg
- clearance [28]: 60 mL/min/kg
- CLhep predicted [29]: 2.4 mL/min/kg
- CLhep predicted [30]: 3 mL/min/kg
- CLhep predicted [31]: 3.7 mL/min/kg
- fraction unbound [32]: 0.4
- fraction unbound [33]: 0.53
- Papp B→A [34]: 4.7 ×10⁻⁶ cm/s
- fraction unbound [35]: 0.62
- solubility thermodynamic [36]: 1900 µM (≈ 588 µg/mL)
- solubility thermodynamic [37]: > 4000 µM
- CLhep predicted [38]: 3.3 mL/min/kg
- CLhep predicted [39]: 1.7 mL/min/kg
- Papp A→B [40]: 2.7 ×10⁻⁶ cm/s
- Cmax [41]: 420 nM
- IC50 [42]: > 10 µM
- IC50 [43]: > 10 µM
- IC50 [44]: > 10 µM
- EC50 [46]: 5.6 µM
- Ki [47]: 0.012 µM
- EC50 [48]: 0.13 µM
- EC50 [49]: 0.12 µM
- Ki [50]: 0.0019 µM
SMILES: C[C@@H](O)c1nc2cnc3[nH]ccc3c2n1[C@H]1CC[C@H](C#N)CC1
- Activity [1]: Active
- Activity [9]: Active
- Activity [10]: Active
- IC50 [45]: > 100 µM

- IC50 [2]: > 10 µM
- IC50 [11]: > 10 µM
- IC50 [12]: 6.7 µM
- Ki [13]: 0.0078 µM
- bioavailability [15]: 8%
- bioavailability [16]: 125%
- bioavailability [17]: 50%
- Cmax [18]: 70 nM
- Cmax [19]: 1300 nM
- AUC [20]: 0.26 µM·h
- AUC [21]: 4.3 µM·h
- AUC [22]: 0.42 µM·h
- half-life [23]: 0.8 h
- half-life [24]: 1.3 h
- half-life [25]: 0.6 h
- clearance [26]: 29 mL/min/kg
- clearance [27]: 29 mL/min/kg
- clearance [28]: 126 mL/min/kg
- CLhep predicted [29]: 36 mL/min/kg
- CLhep predicted [30]: 11 mL/min/kg
- CLhep predicted [31]: 28 mL/min/kg
- fraction unbound [32]: 0.24
- fraction unbound [33]: 0.34
- Papp B→A [34]: 9.3 ×10⁻⁶ cm/s
- fraction unbound [35]: 0.32
- solubility thermodynamic [36]: 16 µM (≈ 5.4 µg/mL)
- solubility thermodynamic [37]: > 4000 µM
- CLhep predicted [38]: 5.2 mL/min/kg
- CLhep predicted [39]: 5.7 mL/min/kg
- Papp A→B [40]: 4.7 ×10⁻⁶ cm/s
- Cmax [41]: 220 nM
- IC50 [42]: > 10 µM
- IC50 [43]: > 10 µM
- IC50 [44]: > 10 µM
SMILES: C[C@@H](O)c1nc2cnc3[nH]ccc3c2n1[C@H]1CC[C@H](CCC#N)CC1
- IC50 [45]: 20 µM
